# Reference: patent US7258981B2, “Sensitive proteasome sensor constructs and methods for their design and use” (Clontech Laboratories, Inc., priority 2003, dated 2007)
# Read-outs that look alike come from different tables or passages of the source. Square brackets hold non-standard residues; d marks the D form. Peptide text beside a SMILES is read from it. * marks the point of attachment. Nle = CCCC[C@H](N)C(=O)O; Cbz = O=C(OCc1ccccc1)*
# Columns and labels:
# proteasome [1] = experiment: Inventive proteasome sensor sensitivity (detection of proteasome inhibitors); type: cell-based; settings: six hour after treatment as benchmark; broadest stated range
# From the text: In determining sensitivity of his system, in the present application six hour after treating a cell with a proteasome modifying treatment is employed as a benchmark for sensitivity.
# proteasome [2] = experiment: HEK 293 cells transiently transfected with ZsGreen constructs, MFI by flow cytometry; type: cell-based; settings: HEK 293, transient transfection
# Protocol: (FIGS. 2A&B) To establish if the above proteins are substrate for degradation by the proteasome, HEK 293 cells were transiently transfected with the plasmids and the mean fluorescence intensity (MFI) of the cells was measured by flow cytometry 16 hours after transfection. […] To distinguish between these two possibilities, the transiently transfected cells were treated with ALLN, a well-characterized reversible inhibitor of proteasomal degradation.
# proteasome [3] = experiment: Stable HEK 293 clone expressing ZsGreend410, fluorescence with or without ALLN; type: cell-based
# proteasome [4] = settings: GFP-CL1 fusion; flow cytometry; cited from earlier work
# proteasome [5] = settings: GFP-MODC fragment fusion; at 20 hours; flow cytometry; cited from earlier work
# proteasome [6] = settings: GFP-Ubiquitin fusion; at 15 hours; flow cytometry (FACS); cited from earlier work
smiles,measurement,setting,value
CC[C@H](C)[C@H](NC(=O)[C@H]([C@@H](C)CC)N(C)C(C)=O)C(=O)N[C@H](C(=O)N[C@@H](CC(C)C)C(=O)[C@@]1(C)CO1)[C@@H](C)O [Epoxomycin],detection level of inhibitor by the inventive sensor,proteasome [1],1 to 30 nM
CCCC[C@@H](C=O)NC(=O)[C@H](CC(C)C)NC(=O)[C@H](CC(C)C)NC(C)=O [ALLN] (Ac-Leu-Leu-[Nle]-aldehyde),detection level of inhibitor by the inventive sensor,proteasome [1],50 to 2500 nM
same,effect of treatment on fluorescence of ZsGreen expressing cells,proteasome [2],only marginally increases
same,effect of treatment on fluorescence of pZsGreendl and pZsGreend410-transfected cells,proteasome [2],increased in a time-dependent fashion
same,delay before the appearance of fluorescence,"proteasome [3]; ZsGreend410-expressing clone, stable transfection",3 h
same,effect of treatment on fluorescence of cells stably expressing ZsGreend410,proteasome [3]; stable HEK 293 clone,sharply increases
CC(=O)N[C@@H](CSC(=O)[C@]1([C@@H](O)C(C)C)NC(=O)[C@H](C)[C@@H]1O)C(=O)O [Lactacystin],detection level of inhibitor by the inventive sensor,proteasome [1],10 to 500 nM
same,sensitivity achieved (inhibitor concentration),proteasome [4],845 nM
same,sensitivity achieved (inhibitor concentration),proteasome [5],2.5 µM
CC(C)C[C@@H](C=O)NC(=O)[C@H](CC(C)C)NC(=O)[C@H](CC(C)C)NC(=O)OCc1ccccc1 [MG132] (Cbz-Leu-Leu-Leu-aldehyde),sensitivity achieved (inhibitor concentration),proteasome [5],2.5 µM
CC(C)C[C@@H](/C=C/S(C)(=O)=O)NC(=O)[C@H](CC(C)C)NC(=O)[C@H](CC(C)C)NC(=O)OCc1ccccc1 [Z-L3-VS],sensitivity achieved (inhibitor concentration),proteasome [6],4 µM
